Laboratory results: patent US20250017888A1, “COMPOUNDS FOR TREATING DISEASES ASSOCIATED WITH HYALURONAN OVERPRODUCTION” (THE ROYAL VETERINARY COLLEGE, priority 2021, published 2025)

Assays:
[1] = system: bovine cartilage slices; test: Proteoglycan shedding from bovine cartilage slices; assay type: cell-based; settings: Interleukin induced, one week of incubation; compared to unmodified xanthohumol
Experimental: Hyaluronan overproduction causes massive shedding of proteoglycans from cartilage. Bovine cartilage slices were cultivated in organ culture and osteoarthritic reactions were induced by addition on Interleukin and increasing concentrations of xanthohumol-betaine. The amounts of proteoglycan were determined in the cartilage slices and in the medium after one week of incubation.

[2] = system: Str/ort mice; test: Histology and grading of articular cartilage lesions in Str/ort mice; assay type: in vivo, mouse
Experimental: At 10-13 weeks of age, 21 male Str/ort mice (n=7/group) were assigned randomly to vehicle, hylin-betaine and xantho-betaine groups and were treated intraperitoneally 18 weeks with either vehicle (5% DMSO in 95% peanut oil), 50 mg/kg compound of Example 1 (“hylin-betaine”) in 5% DMSO and 95% peanut oil or 50 mg/kg compound of Example 2 (“xantho-betaine”) in 5% DMSO and 95% peanut oil. Dissected right knees were fixed in neutral buffered formalin, decalcified (Immunocal, Quartett, Berlin), wax-embedded and 6 μm coronal sections cut. Multiple sections (five/slide) from 120 μm intervals across the whole joint were stained with Tollidine blue (0.1% in 0.1 M acetate buffer, pH 5.6) and AC lesion severity graded. Sections from right vehicle, hylin-betaine and xantho-betaine treated Str/ort joints were stained with Safranin O. Sections were dewaxed, and AC lesion severity was scored in Str/ort mice by the methods of Chambers et al., (Chambers et al Expression of collagen and aggrecan genes in normal and osteoarthritic murine knee joints. Osteoarthritis and cartilage/OARS, Osteoarthritis Research Society. 2002; 10(1):51-61) consistent with an internationally-recognized system. Briefly, grade 0: normal; grade 1: rough surface or superficial zone lesions; grade 2: lesion down to the intermediate zone; grade 3: lesions down to tidemark or loss of AC; grades 4 and 5: AC loss across between 20% and 50% or 50-80% of condylar surface; grade 6: loss with subchondral bone exposure. Multiple slides (˜10), each containing five 6 μm sections sampled at 120 μm intervals spanning each entire joint were graded. Grading in each joint compartment (lateral/medial, tibia/femur) allowed for a maximum (most severe) grade to be assigned in each section, and used to produce an overall ‘average’ maximum grade in each group of mice, for the entire joint and for each compartment. In addition, a mean score was produced for each joint and for each compartment and these similarly used to produce an overall ‘average’ mean grade in each group of mice. Mean grades provide a measure of the ‘extent’ of AC lesion (representing relative volume) in each joint/compartment.

SMILES: COc1cc(O)c(CC=C(C)C)c(O)c1C(=O)/C=C/c1ccc(OC(=O)C[N+](C)(C)C)cc1.[Cl-] [Xantho-betaine, (E)-2-(4-(3-(2,4-dihydroxy-6-methoxy-3-(3-methylbut-2-en-1-yl)phenyl)-3-oxoprop-1-en-1-yl)phenoxy)-N,N,N-trimethyl-2-oxoethanaminium chloride]
- reduction of shedding of proteoglycan into the medium [1]: more effective
- effect on articular cartilage lesions / development of OA (overall) ([2]; 50 mg/kg intraperitoneally, 18 weeks, vs vehicle): no such protection
- maximum OA score ([2]; vs vehicle treated Str/ort mice): not found to be statistically significant
